According to patent US5919797A, “Halogenated naphthyl methoxy piperidines for mapping serotonin transporter sites” (Emory University, priority 1997, dated 1999):
“Also recorded” adds a separate entry of the source. Counter-ions that a name gives are not always drawn. Like-named read-outs stand apart in the source and are kept apart here.

Legend:
[1] = tested on: serotonin transporter sites; conditions: carbon-11 labelled, vs previously tested PET serotonin transporter ligands; cited from earlier work
serotonin transporter [2] = target: T1, serotonin transporter (Rattus norvegicus, UniProt P31652); assay: inhibition of [3H]-citalopram binding to rat cortical homogenates (competitive radioligand binding assay)
T1 construct: from tissue; host or cells: rat cerebral cortex homogenate
T1 sequence (P31652 whole entry): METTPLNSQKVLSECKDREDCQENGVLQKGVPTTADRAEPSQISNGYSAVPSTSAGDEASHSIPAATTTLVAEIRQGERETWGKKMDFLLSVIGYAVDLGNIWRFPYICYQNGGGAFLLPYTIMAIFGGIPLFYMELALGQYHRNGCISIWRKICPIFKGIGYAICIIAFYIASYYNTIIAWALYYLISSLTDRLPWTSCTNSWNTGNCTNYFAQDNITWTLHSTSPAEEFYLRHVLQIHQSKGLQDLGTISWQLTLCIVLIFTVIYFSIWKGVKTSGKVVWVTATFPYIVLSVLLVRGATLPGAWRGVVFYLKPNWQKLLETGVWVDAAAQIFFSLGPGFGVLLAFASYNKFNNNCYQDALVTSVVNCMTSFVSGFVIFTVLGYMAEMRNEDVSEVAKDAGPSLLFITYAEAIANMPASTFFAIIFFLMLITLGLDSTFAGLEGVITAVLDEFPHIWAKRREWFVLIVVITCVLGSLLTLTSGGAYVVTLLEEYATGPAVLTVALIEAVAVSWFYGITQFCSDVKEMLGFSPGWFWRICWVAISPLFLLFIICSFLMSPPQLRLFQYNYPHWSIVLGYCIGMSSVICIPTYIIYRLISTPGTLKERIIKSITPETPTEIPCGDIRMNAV
Source text: Compounds of the invention have activity as specific ligands of the serotonin transporter. In particular, the 1-halonaphthalenyl pharmacophore has high affinity for the serotonin transporter. […] Halogen substituents can be in naturally-occurring or radioisotopic form.
Many compounds have been described in the literature as selective inhibitors of the presynaptic reuptake of serotonin (5-hydroxytryptamine,5-HT). […] A good correlation exists between the capacities of a variety of drugs to inhibit [^3 -H]-citalopram binding and [^3 -H]-5HT uptake in rat cortex, thus allowing this binding test to be used in screening for new 5-HT uptake inhibitors. […]

serotonergic neurons = assay: biodistribution studies in rats of radiolabelled compound; type: in vivo, rat; conditions: 123-I labelled
5HT3 receptor = assay: inhibition of [3H] GR65630 binding to serotonergic synaptosomal preparation
Source text: 5HT3 receptor activity. It blocked the binding of [3H] GR65630 to […]

[3] = tested on: presynaptic reuptake of serotonin; conditions: humans; depression, obsessive-compulsive and eating disorders, alcoholism, drug addiction; cited from earlier work
serotonin transporter [4] = conditions: radiolabeled with carbon-11 and fluorine-18; cited from earlier work
[5] = Table 1, rat cortical tissue, read-out: [3H]-Citalopram Binding IC50
[6] = Table 1, rat cortical tissue, read-out: [3H]-Citalopram Binding Ki
[7] = concentration needed to achieve 50% inhibition of citalopram binding (IC50), rat cortical homogenates
[8] = serotonergic synaptosomal preparation

Row | SMILES | IC50 (serotonin transporter [2]; [5]) [nM] | Ki (serotonin transporter [2]; [6]) [nM] | IC50 (serotonin transporter [2]; [7]) [nM] | inhibition of [3H]-citalopram binding / affinity for the serotonin transporter, in words (serotonin transporter [2]; rat cortical tissue) | other results
1 | [11CH3]Sc1ccc([C@H]2CN3CCC[C@H]3c3ccccc32)cc1 [Carbon-11 McN-5652Z] | – | – | – | – | accumulation in brain regions rich in serotonergic neurons, in words [1]: greatest accumulation in brain regions rich in serotonergic neurons
2 | Brc1c(COC2CCNCC2)ccc2ccccc12.Cl [Compound 1, 4-[(1-Bromo-2-naphthalenyl)methoxy]piperidine hydrochloride] | 0.02 | 0.014 | 0.015 | most potent inhibitor | potency relative to fluoxetine, inhibition of [3H]-citalopram binding (serotonin transporter [2]; rat cortical tissue, vs fluoxetine (Prozac)): 100 fold
3 | Ic1c(COC2CCNCC2)ccc2ccccc12 [Compound 2, 4[(1-Iodo-2-naphthalenyl)methoxyl]piperidine hydrochloride] | – | – | 4.1 | – | Ki (serotonin transporter [2]): 4.13 nM; IC50 (serotonin transporter [2]; [3H]-Citalopram Binding IC50, Table 1, rat cortical tissue): 5.9 nM
4 | Cl.Fc1c(COC2CCNCC2)ccc2ccccc12 [Compound 3, 4-[(1-Fluoro-2-naphthalenyl)methoxy]-piperidine hydrochloride] | 5.74 | 3.37 | 3.37 | inhibitory activity comparable to that of fluoxetine and fluvoxamine | –
5 | Cl.Clc1c(COC2CCNCC2)ccc2ccccc12 [Compound 4, 4-[(1-Chloro-2-naphthalenyl)methoxy]-piperidine hydrochloride] | 2.12 | 1.24 | 1.24 | inhibitory activity comparable to that of fluoxetine and fluvoxamine | –
6 | Brc1c(COC2CCNCC2)c(I)cc2ccccc12 [Compound 5, 4-[(1-Bromo-3-iodo-2-naphthalenyl)methoxy]piperidine hydrochloride] | 54.6 | 36.9 | – | – | –
7 | Brc1c(COC2CCNCC2)cc(I)c2ccccc12 [Compound 6, 4-[(1-bromo-4-iodo-2-naphthalenyl)methoxy]piperidine hydrochloride] | 24.6 | 16.7 | – | – | –
8 | Brc1c(COC2CCNCC2)ccc2cc(I)ccc12 [Compound 7, 4-[(1-Bromo-6-iodo-2-naphthalenyl)methoxy]piperidine hydrochloride] | 60 | 58.4 | – | – | –
9 | [123I]c1c(COC2CCNCC2)ccc2ccccc12 [Compound 58] | – | – | – | – | selective accumulation of radioactivity in serotonergic neurons (serotonergic neurons): did not lead to selective accumulation of the radioactivity in serotonergic neurons
10 | c1ccc2nc(COC3CCNCC3)ccc2c1 [Compound 70, 4-[(2-quinolenyl)methoxy]piperdine hydrochloride] | > 100 | > 100 | – | devoid of affinity for the serotonin transporter | 5-HT3 antagonism, in words (5HT3 receptor; hydrochloride): high selectivity as an antagonist of 5-HT3 function; also recorded: potent inhibitor; IC50 (5HT3 receptor; [8]): 7.4 nM; Ki (5HT3 receptor; [8]): 3.24 nM
11 | COCCCC/C(=N\OCCN)c1ccc(C(F)(F)F)cc1 [fluvoxamine] | – | – | – | – | therapeutic value, in words [3]: considerable therapeutic value
12 | O=[N+]([O-])c1ccc2nc(N3CCNCC3)ccc2c1 [nitroquipazine] | – | – | – | – | image quality / in vivo affinity and selectivity, in words (serotonin transporter [4]): poor quality images
